Experimental data from patent US11542274B1, “Therapeutic compounds and methods of use thereof” (AGENCY FOR SCIENCE, TECHNOLOGY AND RESEARCH (A*STAR), priority 2019, dated 2023).

Tests used:
[1] = tested on: RAMOS cells (Burkitt's lymphoma cell line); assay: Anti-proliferation assay (CellTiter-Glo); format: cell-based; conditions: Homo sapiens, 72 h, 3 days
Procedure: In cell growth experiments, cells were seeded in 96-well cell culture plates at a density of 3000 of RAMOS cells/well in 100 μL of culture medium. 100 μL of the diluted solution containing the tested compound was added to the appropriate wells of the cell plate. After addition of the tested compound, the cells were incubated at 37° C. in an atmosphere of 5% CO2 for 3 days. CellTiter-Glo (CTG) reagent from the Promega CellTiter-Glo Luminescent Cell Viability Assay kit (#G7572) was added into an OptiPlate 96 (Perkin Elmer, White, Opaque, #6005299) in the dark, incubated for at least 2 hrs, and luminescence signal was read using Tecan Safire II Multi-Mode Plate Reader. The GI50 was calculated by nonlinear regression analysis using GraphPad Prism5 software.
GI50 is the concentration for 50% of maximal inhibition of cell proliferation.

truncated CRBN (319-427) = truncated CRBN (319-427) (Homo sapiens (Human), UniProt Q96SW2); assay: Fluorescence binding assay (fluorescence quenching), affinity to E3-CEREBLON (CRBN)-ubiquitin ligase; conditions: ubiquitination moiety, pH 6.5
truncated CRBN (319-427), sequence (Q96SW2 319-427): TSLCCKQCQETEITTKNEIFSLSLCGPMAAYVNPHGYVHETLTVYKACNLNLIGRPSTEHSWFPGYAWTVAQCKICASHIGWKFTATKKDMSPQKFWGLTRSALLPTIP
Procedure: Fluorescence quenching end point measurements were performed in black polystyrene 384-plates on Tecan Safire monochromator reader with the following settings: excitation 280 nm; excitation bandwidth 10.0 nm; emission collection 340 nm; emission bandwidth 20.0 nm; high sensitivity flash mode; integration time 40 μS; delay 0 μm. All measurements were done in duplicates; GraphPad Prism 5.03 was used for data evaluation, curve fitting, plotting and determination of IC50 values.
Serial dilutions of each tested ligands were mixed with truncated CRBN (319-427) to a final volume of 25 μL in the assay buffer (20 mM sodium phosphate buffer, pH 6.5, with 150 mM sodium chloride). The final concentration of CRBN in all assay will be 5-10 μM with DMSO level at 4%. A control lanes were prepared with only tested ligands without the addition of CRBN, top up with assay buffer to 25 μL. Plates were incubated for 5 minutes and analyzed using the monochromator plate reader.
IC50 is the compound concentration that causes 50% quenching of the desired activity.

Row | SMILES | GI50 [1] [µM] | IC50 (truncated CRBN (319-427)) [µM]
1 | Cc1sc2c(c1C)C(c1ccc(Cl)cc1)=N[C@@H](CC(=O)NCCCCCNc1cc(-c3ccc4c(c3)NC(=O)C4)ccn1)c1nnc(C)n1-2 [Compound 096, (S)-2-(4-(4-chlorophenyl)-2,3,9-trimethyl-6H-thieno[3,2-f][1,2,4]triazolo[4,3-a][1,4]diazepin-6-yl)-N-(5-((4-(2-oxoindolin-6-yl)pyridin-2-yl)amino)pentyl)acetamide] | 0.1 to 1 | –
2 | Cc1sc2c(c1C)C(c1ccc(Cl)cc1)=N[C@@H](CC(=O)Nc1ccc(OCCOCCOCCOCCOCCNc3ccc(-c4ccc5c(c4)CC(=O)N5)cn3)cc1)c1nnc(C)n1-2 [Compound 131, (S)-2-(4-(4-chlorophenyl)-2,3,9-trimethyl-6H-thieno[3,2-f][1,2,4]triazolo[4,3-a][1,4]diazepin-6-yl)-N-(4-((14-((5-(2-oxoindolin-5-yl)pyridin-2-yl)amino)-3,6,9,12-tetraoxatetradecyl)oxy)phenyl)acetamide] | 0.001 to 0.1 | –
3 | Cc1sc2c(c1C)C(c1ccc(Cl)cc1)=N[C@@H](CC(=O)Nc1ccc(OCCOCCOCCOCCNC(=O)c3cccc(-c4ccc5c(c4)CC(=O)N5)c3)cc1)c1nnc(C)n1-2 [Compound 103, (S)—N-(2-(2-(2-(2-(4-(2-(4-(4-chlorophenyl)-2,3,9-trimethyl-6H-thieno[3,2-f][1,2,4]triazolo[4,3-a][1,4]diazepin-6-yl)acetamido)phenoxy)ethoxy)ethoxy)ethoxy)ethyl)-3-(2-oxoindolin-5-yl)benzamide] | 0.1 to 1 | –
4 | Cc1sc2c(c1C)C(c1ccc(Cl)cc1)=N[C@@H](CC(=O)NCCC1CCN(c3ccc(-c4ccc5c(c4)CC(=O)N5)cn3)CC1)c1nnc(C)n1-2 [Compound 134, (S)-2-(4-(4-chlorophenyl)-2,3,9-trimethyl-6H-thieno[3,2-f][1,2,4]triazolo[4,3-a][1,4]diazepin-6-yl)-N-(2-(1-(5-(2-oxoindolin-5-yl)pyridin-2-yl)piperidin-4-yl)ethyl)acetamide] | 0.001 to 0.1 | –
5 | Cc1sc2c(c1C)C(c1ccc(Cl)cc1)=N[C@@H](CC(=O)NCCCCNc1ncccc1-c1ccc3c(c1)CC(=O)N3)c1nnc(C)n1-2 [Compound 139, (S)-2-(4-(4-chlorophenyl)-2,3,9-trimethyl-6H-thieno[3,2-f][1,2,4]triazolo[4,3-a][1,4]diazepin-6-yl)-N-(4-((3-(2-oxoindolin-5-yl)pyridin-2-yl)amino)butyl)acetamide] | 0.1 to 1 | –
6 | Cc1sc2c(c1C)C(c1ccc(Cl)cc1)=N[C@@H](CC(=O)NCCOCCOCCOCCC(=O)NC1CCN(C(=O)c3ccc4c(c3)CC(=O)N4)CC1)c1nnc(C)n1-2 [Compound 109, (S)-3-(2-(2-(2-(2-(4-(4-chlorophenyl)-2,3,9-trimethyl-6H-thieno[3,2-f][1,2,4]triazolo[4,3-a][1,4]diazepin-6-yl)acetamido)ethoxy)ethoxy)ethoxy)-N-(1-(2-oxoindoline-5-carbonyl)piperidin-4-yl)propanamide] | 0.001 to 0.1 | –
7 | Cc1sc2c(c1C)C(c1ccc(Cl)cc1)=N[C@@H](CC(=O)NCCOCCOCCOCCNc1ncccc1-c1ccc3c(c1)CC(=O)N3)c1nnc(C)n1-2 [Compound 107, (S)-2-(4-(4-chlorophenyl)-2,3,9-trimethyl-6H-thieno[3,2-f][1,2,4]triazolo[4,3-a][1,4]diazepin-6-yl)-N-(2-(2-(2-(2-((3-(2-oxoindolin-5-yl)pyridin-2-yl)amino)ethoxy)ethoxy)ethoxy)ethyl)acetamide] | 0.001 to 0.1 | –
8 | Cc1sc2c(c1C)C(c1ccc(Cl)cc1)=N[C@@H](CC(=O)NCCOCCOCCOCCNc1ccc(-c3ccc4c(c3)NC(=O)C4)cn1)c1nnc(C)n1-2 [Compound 100, (S)-2-(4-(4-chlorophenyl)-2,3,9-trimethyl-6H-thieno[3,2-f][1,2,4]triazolo[4,3-a][1,4]diazepin-6-yl)-N-(2-(2-(2-(2-((5-(2-oxoindolin-6-yl)pyridin-2-yl)amino)ethoxy)ethoxy)ethoxy)ethyl)acetamide] | 0.1 to 1 | –
9 | Cc1sc2c(c1C)C(c1ccc(Cl)cc1)=N[C@@H](CC(=O)Nc1ccc(OCCOCCOCCOCCNc3ccc(-c4ccc5c(c4)CC(=O)N5)cn3)cc1)c1nnc(C)n1-2 [Compound 098, (S)-2-(4-(4-chlorophenyl)-2,3,9-trimethyl-6H-thieno[3,2-f][1,2,4]triazolo[4,3-a][1,4]diazepin-6-yl)-N-(4-(2-(2-(2-(2-((5-(2-oxoindolin-5-yl)pyridin-2-yl)amino)ethoxy)ethoxy)ethoxy)ethoxy)phenyl)acetamide] | 0.001 to 0.1 | –
10 | Cc1sc2c(c1C)C(c1ccc(Cl)cc1)=N[C@@H](CC(=O)NCCOCCOCCOCCNc1cc(-c3ccc4c(c3)CC(=O)N4)ccn1)c1nnc(C)n1-2 [Compound 097, (S)-2-(4-(4-chlorophenyl)-2,3,9-trimethyl-6H-thieno[3,2-f][1,2,4]triazolo[4,3-a][1,4]diazepin-6-yl)-N-(2-(2-(2-(2-((4-(2-oxoindolin-5-yl)pyridin-2-yl)amino)ethoxy)ethoxy)ethoxy)ethyl)acetamide] | > 1 | –
11 | Cc1sc2c(c1C)C(c1ccc(Cl)cc1)=N[C@@H](CC(=O)NCCOCCOCCOCCNc1ccc(-c3ccc4c(c3)CC(=O)N4C)cn1)c1nnc(C)n1-2 [Compound 121, (S)-2-(4-(4-chlorophenyl)-2,3,9-trimethyl-6H-thieno[3,2-f][1,2,4]triazolo[4,3-a][1,4]diazepin-6-yl)-N-(2-(2-(2-(2-((5-(1-methyl-2-oxoindolin-5-yl)pyridin-2-yl)amino)ethoxy)ethoxy)ethoxy)ethyl)acetamide] | 0.1 to 1 | –
12 | Cc1sc2c(c1C)C(c1ccc(Cl)cc1)=N[C@@H](CC(=O)NCCOCCOCCOCCNc1cc(-c3ccc4c(c3)NC(=O)C4)ccn1)c1nnc(C)n1-2 [Compound 113, (S)-2-(4-(4-chlorophenyl)-2,3,9-trimethyl-6H-thieno[3,2-f][1,2,4]triazolo[4,3-a][1,4]diazepin-6-yl)-N-(2-(2-(2-(2-((4-(2-oxoindolin-6-yl)pyridin-2-yl)amino)ethoxy)ethoxy)ethoxy)ethyl)acetamide] | 0.1 to 1 | –
13 | Cc1sc2c(c1C)C(c1ccc(Cl)cc1)=N[C@@H](CC(=O)NCCOCCOCCNc1ccc(-c3ccc4c(c3)CC(=O)N4)cn1)c1nnc(C)n1-2 [Compound 116, (S)-2-(4-(4-chlorophenyl)-2,3,9-trimethyl-6H-thieno[3,2-f][1,2,4]triazolo[4,3-a][1,4]diazepin-6-yl)-N-(2-(2-(2-((5-(2-oxoindolin-5-yl)pyridin-2-yl)amino)ethoxy)ethoxy)ethyl)acetamide] | 0.001 to 0.1 | –
14 | Cc1sc2c(c1C)C(c1ccc(Cl)cc1)=N[C@@H](CC(=O)Nc1ccc(OCCOCCOCCOCCNC(=O)c3cccc(-c4ccc5c(c4)NC(=O)C5)c3)cc1)c1nnc(C)n1-2 [Compound 102, (S)—N-(2-(2-(2-(2-(4-(2-(4-(4-chlorophenyl)-2,3,9-trimethyl-6H-thieno[3,2-f][1,2,4]triazolo[4,3-a][1,4]diazepin-6-yl)acetamido)phenoxy)ethoxy)ethoxy)ethoxy)ethyl)-3-(2-oxoindolin-6-yl)benzamide] | 0.1 to 1 | –
15 | Cc1nc(N)ccc1-c1ccc2c(c1)CC(=O)N2 [Compound 044, 5-(6-amino-2-methylpyridin-3-yl)indolin-2-one] | – | 100 to 300
16 | COC(=O)c1ccccc1-c1ccc2c(c1)NC(=O)C2 [Compound 079, methyl 2-(2-oxoindolin-6-yl)benzoate] | – | > 300
17 | CN1CCN(C(=O)c2ccc3c(c2)CC(=O)N3)CC1 [Compound 067, 5-(4-methylpiperazine-1-carbonyl)indolin-2-one] | – | > 300
18 | NC1CCN(C(=O)c2ccc3c(c2)CC(=O)N3)CC1 [Compound 078, 5-(4-aminopiperidine-1-carbonyl)indolin-2-one] | – | > 300
19 | Cc1cnccc1-c1ccc2c(c1)NC(=O)C2 [Compound 006, 6-(3-methylpyridin-4-yl)indolin-2-one] | – | > 300
20 | O=C1Cc2cc(C(=O)N3CCC(c4ccccc4)CC3)ccc2N1 [Compound 068, 5-(4-phenylpiperidine-1-carbonyl)indolin-2-one] | – | 100 to 300
21 | CN1C(=O)Cc2cc(C(=O)N3CCCCC3)ccc21 [Compound 083, 1-methyl-5-(piperidine-1-carbonyl)indolin-2-one] | – | > 300
22 | O=C1Cc2cccc(-c3ccncc3)c2N1 [Compound 037, 7-(pyridin-4-yl)indolin-2-one] | – | > 300
23 | CC(=O)Nc1cc(C)c(-c2ccc3c(c2)CC(=O)N3)cn1 [Compound 050, N-(4-methyl-5-(2-oxoindolin-5-yl)pyridin-2-yl)acetamide] | – | 1 to 100
24 | CNC(=O)c1ccc(-c2ccc3c(c2)NC(=O)C3)cc1 [Compound 022, N-methyl-4-(2-oxoindolin-6-yl)benzamide] | – | 1 to 100
25 | O=C1Cc2c(cccc2-c2ccncc2)N1 [Compound 038, 4-(pyridin-4-yl)indolin-2-one] | – | > 300
26 | O=C1Cc2cc(NC(=O)c3ccncc3)ccc2N1 [Compound 059, N-(2-oxoindolin-5-yl)isonicotinamide] | – | 100 to 300
